Source: patent US12559474B2, “Triazine derivatives having virus replication inhibitory activity and pharmaceutical composition comprising the same” (priority 2021, dated 2026)
Like-named read-outs stand apart in the source and are kept apart here.

How the values were obtained:
SARS-CoV-2 3CL protease = SARS-CoV-2 3CL protease (Severe acute respiratory syndrome coronavirus 2, UniProt P0DTD1); test: biochemical; conditions: 50% SARS-CoV-2 3CL protease inhibitory concentration, read-out: IC50
SARS-CoV-2 = test: microbe, parasite or virus in culture; assay type: cell-based; conditions: Severe acute respiratory syndrome coronavirus 2, VeroE6/TMPRSS2, 72 h, 50% SARS-CoV-2 infected cell death inhibitory concentration, VeroE6/TMPRSS2 cells, 3 days culture

Row | SMILES | IC50 (SARS-CoV-2 3CL protease; given as class symbols) [nM] | EC50 (SARS-CoV-2; class symbols) [nM] | IC50 (SARS-CoV-2 3CL protease; RapidFire MS) [nM] | EC50 (SARS-CoV-2; CellTiter-Glo 2.0) [nM]
1 | COc1ccc(Nc2nc(=O)n(Cc3cc(-c4ncco4)c[nH]c3=O)c(=O)n2Cc2cc(F)c(F)c(F)c2)cc1 [Compound I-0260] | < 100 | 1000 to 10000 | – | –
2 | Cc1nc2cc(Cl)c(Nc3nc(=O)n(Cc4ccc[nH]c4=O)c(=O)n3Cc3cc(F)c(F)c(Cl)c3)cc2n1C [Compound I-0264] | < 100 | 1000 to 10000 | – | –
3 | Cn1cc2cc(Nc3nc(=O)n(Cc4ccc[nH]c4=O)c(=O)n3Cc3ccc(F)c(C#N)c3)c(Cl)cc2n1 [Compound I-0267] | < 100 | 1000 to 10000 | – | –
4 | N#Cc1cc(Cn2c(Nc3cc4c(cc3Cl)OCC4)nc(=O)n(Cc3cc(F)c[nH]c3=O)c2=O)ccc1F [Compound I-0271] | < 100 | 1000 to 10000 | – | –
5 | O=c1[nH]cc(F)cc1Cn1c(=O)nc(Nc2cc3c(cc2Cl)OCC3)n(Cc2cc(F)c(F)c(F)c2)c1=O [Compound I-0272] | < 100 | < 1000 | – | –
6 | O=c1[nH]cccc1Cn1c(=O)nc(Nc2cc3cccnc3cc2Cl)n(Cc2cc(F)c(F)c(F)c2)c1=O [Compound I-0279] | < 100 | 1000 to 10000 | – | –
7 | O=c1[nH]cccc1Cn1c(=O)nc(Nc2cc3cn(CCO)nc3cc2Cl)n(Cc2cc(F)c(F)c(F)c2)c1=O [Compound I-0281] | – | – | 3.8 | 4180
8 | O=c1[nH]cccc1Cn1c(=O)nc(Nc2cc3cn(CC(F)F)nc3cc2Cl)n(Cc2cc(F)c(F)c(F)c2)c1=O [Compound I-0284] | < 100 | < 1000 | – | –
9 | COCCn1cc2cc(Nc3nc(=O)n(Cc4ccc[nH]c4=O)c(=O)n3Cc3cc(F)c(F)c(F)c3)c(Cl)cc2n1 [Compound I-0285] | < 100 | 1000 to 10000 | – | –
10 | CCCCn1cc2cc(Nc3nc(=O)n(Cc4ccc[nH]c4=O)c(=O)n3Cc3cc(F)c(F)c(F)c3)c(Cl)cc2n1 [Compound I-0286] | < 100 | 1000 to 10000 | – | –
11 | O=c1nc(Nc2cc3cn(CCO)nc3cc2Cl)n(Cc2cc(F)c(F)c(F)c2)c(=O)n1-c1cncc2ccccc12 [Compound I-0288] | – | – | 5.8 | 747
12 | C[C@@H](O)Cn1cc2cc(Nc3nc(=O)n(Cc4cc(Cl)c[nH]c4=O)c(=O)n3Cc3cc(F)c(F)c(F)c3)c(Cl)cc2n1 [Compound I-0290] | < 100 | 1000 to 10000 | – | –
13 | COc1ccc(Nc2nc(=O)n(Cc3cc4ccccc4[nH]c3=O)c(=O)n2Cc2cc(F)c(F)c(F)c2)cc1 [Compound I-0306] | < 100 | 1000 to 10000 | – | –
14 | COc1ccc(Nc2nc(=O)n(Cc3cc(C(F)(F)F)c[nH]c3=O)c(=O)n2Cc2cc(F)c(F)c(F)c2)cc1 [Compound I-0307] | 100 to 1000 | < 1000 | 440 | –
15 | COc1ccc(Nc2nc(=O)n(Cc3cc(Br)c[nH]c3=O)c(=O)n2Cc2cc(F)c(F)c(F)c2)cc1 [Compound I-0310] | < 100 | 1000 to 10000 | – | –
16 | COc1ccc(Nc2nc(=O)n(Cc3ccc[nH]c3=O)c(=O)n2Cc2cc(F)cc(Cl)c2)cc1 [Compound I-0316] | < 100 | 1000 to 10000 | – | –
17 | COc1ccc(Nc2nc(=O)n(Cc3cc(-c4ccccc4)c[nH]c3=O)c(=O)n2Cc2cc(F)c(F)c(F)c2)cc1 [Compound I-0318] | 100 to 1000 | 1000 to 10000 | 110 | 1360
18 | COc1ccc(Nc2nc(=O)n(Cc3ccc[nH]c3=O)c(=O)n2Cc2cc(F)c(F)cc2F)cc1 [Compound I-0320] | < 100 | 1000 to 10000 | – | –
19 | COc1ccc(Nc2nc(=O)n(Cc3ccc[nH]c3=O)c(=O)n2Cc2ccc(Cl)s2)cc1 [Compound I-0321] | 1000 to 10000 | < 1000 | 2100 | –
20 | O=c1[nH]cccc1Cn1c(=O)nc(-c2ccccc2)n(Cc2cc(F)c(F)c(F)c2)c1=O [Compound I-0329] | – | – | 2000 | 5100
21 | O=c1[nH]cccc1Cn1c(=O)nc(Nc2ccc(O)cc2Cl)n(Cc2cc(F)c(F)c(F)c2)c1=O [Compound I-0330] | < 100 | 1000 to 10000 | – | –
22 | COc1ccc(Nc2nc(=O)n(Cc3ccc[nH]c3=O)c(=O)n2Cc2ccc(F)c(C#N)c2)c(Cl)c1 [Compound I-0331] | < 100 | 1000 to 10000 | – | –
23 | COc1ccc(Nc2nc(=O)n(Cc3ccc[nH]c3=O)c(=O)n2Cc2ccc(F)c(C#N)c2)c(F)c1 [Compound I-0332] | < 100 | 1000 to 10000 | – | –

Row | SMILES | IC50 (SARS-CoV-2 3CL protease; given as class symbols) [nM] | EC50 (SARS-CoV-2; class symbols) [nM] | IC50 (SARS-CoV-2 3CL protease; RapidFire MS) [nM] | EC50 (SARS-CoV-2; CellTiter-Glo 2.0) [nM]
24 | COc1ccc(Nc2nc(=O)n(Cc3ncn(C)n3)c(=O)n2Cc2cc(F)c(F)c(F)c2)cc1 [Compound I-0335] | 100 to 1000 | 1000 to 10000 | – | –
25 | COc1ccc(Nc2nc(=O)n(Cc3ncc(C)s3)c(=O)n2Cc2cc(F)c(F)c(F)c2)cc1 [Compound I-0339] | 100 to 1000 | 1000 to 10000 | 610 | 8000
26 | COc1ccc(Nc2nc(=O)n(-c3cncc4ccncc34)c(=O)n2Cc2cc(F)c(F)c(F)c2)cc1 [Compound I-0344] | < 100 | < 1000 | – | –
27 | COc1ccc(Nc2nc(=O)n(Cc3ncn(C)n3)c(=O)n2Cc2cc(F)c(F)c(F)c2)c(Cl)c1 [Compound I-0346] | < 100 | < 1000 | – | –
28 | N#Cc1cc(Cn2c(Nc3ccc4c(c3)CCO4)nc(=O)n(-c3cncc(Cl)c3)c2=O)ccc1F [Compound I-0348] | < 100 | < 1000 | – | –
29 | N#Cc1cc(Cn2c(Nc3ccc4c(c3)CCO4)nc(=O)n(-c3cncc(C(F)F)c3)c2=O)ccc1F [Compound I-0349] | < 100 | 1000 to 10000 | – | –
30 | N#Cc1cc(Cn2c(Nc3ccc4c(c3)CCO4)nc(=O)n(-c3cncc(F)c3)c2=O)ccc1F [Compound I-0350] | < 100 | < 1000 | – | –
31 | N#Cc1cc(Cn2c(Nc3ccc4c(c3)CCO4)nc(=O)n(-c3cncc4ccccc34)c2=O)ccc1F [Compound I-0351] | – | – | 4.3 | 74.7
32 | N#Cc1cc(Cn2c(Nc3ccc4nn(CC(F)F)cc4c3)nc(=O)n(-c3cncc4ccccc34)c2=O)ccc1F [Compound I-0352] | < 100 | < 1000 | – | –
33 | Cn1cc2cc(Nc3nc(=O)n(-c4cncc5ccccc45)c(=O)n3Cc3ccc(F)c(C#N)c3)ccc2n1 [Compound I-0353] | – | – | 5.4 | 306
34 | Cc1cncc(-n2c(=O)nc(Nc3ccc4c(c3)CCO4)n(Cc3ccc(F)c(C#N)c3)c2=O)c1 [Compound I-0354] | – | – | 5 | 107
35 | Cc1cncc(-n2c(=O)nc(Nc3ccc4nn(CC(F)F)cc4c3)n(Cc3ccc(F)c(C#N)c3)c2=O)c1 [Compound I-0355] | < 100 | < 1000 | 8.7 | 339
36 | O=c1[nH]cccc1Cn1c(=O)nc(Nc2cc3cn(C(F)F)nc3cc2Cl)n(Cc2cc(F)c(F)c(F)c2)c1=O [Compound I-0357] | < 100 | 1000 to 10000 | – | –
37 | COc1ccc(Nc2nc(=O)n(Cc3ccc(C)[nH]c3=O)c(=O)n2Cc2cc(F)c(F)c(F)c2)cc1 [Compound I-0358] | 100 to 1000 | – | 120 | 7450
38 | Cn1cc2cc(Nc3nc(=O)n(Cc4cc(Cl)c[nH]c4=O)c(=O)n3Cc3ccc(F)c(C#N)c3)c(Cl)cc2n1 [Compound I-0359] | < 100 | 1000 to 10000 | – | –
39 | Cn1nc2cc(Cl)c(Nc3nc(=O)n(Cc4cccnc4O)c(=O)n3Cc3cc(F)c(F)c(F)c3)cc2c1CCCO [Compound I-0364] | < 100 | 1000 to 10000 | – | –
40 | COCCCc1c2cc(Nc3nc(=O)n(Cc4ccc[nH]c4=O)c(=O)n3Cc3cc(F)c(F)c(F)c3)c(Cl)cc2nn1C [Compound I-0365] | < 100 | 1000 to 10000 | – | –
41 | CC(C)n1cc2cc(Nc3nc(=O)n(Cc4cccnc4O)c(=O)n3Cc3cc(F)c(F)c(F)c3)c(Cl)cc2n1 [Compound I-0366] | < 100 | 1000 to 10000 | – | –
42 | CNC(=O)Cn1cc2cc(Nc3nc(=O)n(Cc4ccc[nH]c4=O)c(=O)n3Cc3cc(F)c(F)c(F)c3)c(Cl)cc2n1 [Compound I-0368] | < 100 | 1000 to 10000 | – | –
43 | Cc1cc2nn(C)cc2cc1Nc1nc(=O)n(-c2cccc3cnccc23)c(=O)n1Cc1cc(F)c(F)c(F)c1 [Compound I-0369] | < 100 | 1000 to 10000 | – | –
44 | Cc1nc2cc(Cl)c(Nc3nc(=O)n(Cc4ccc[nH]c4=O)c(=O)n3Cc3cc(F)c(F)c(F)c3)cc2s1 [Compound I-0370] | < 100 | 1000 to 10000 | – | –
45 | O=c1[nH]cccc1Cn1c(=O)nc(Nc2cc3c(cc2Cl)OCCC3)n(Cc2cc(F)c(F)c(F)c2)c1=O [Compound I-0372] | < 100 | < 1000 | – | –
46 | COc1ccc(Nc2nc(=O)n(-c3cncc(C)c3)c(=O)n2Cc2cc(F)c(F)c(F)c2)cc1 [Compound I-0374] | < 100 | 1000 to 10000 | – | –
